Assay results reported in patent publication EP0598753B1, “MANGANESE COMPLEXES OF NITROGEN-CONTAINING MACROCYCLIC LIGANDS EFFECTIVE AS CATALYSTS FOR DISMUTATING SUPEROXIDE” (MONSANTO COMPANY, priority 1991, dated 1993).

Legend:
[1] = system: human aortic endothelial cells (HAE cells)
Text: (§1) Human peripheral blood neutrophils were isolated from fresh venous blood of healthy volunteers. EDTA anticoagulated blood was separated using a single step density centrifugation (Polymorphprep; Nycomed Pharma, Oslo, Norway) followed by several washes in Hank's balanced salt solution supplemented with 0.5% BSA (Bovine Serum Albumin) (HBSSB) and the hypertonic lysis of erythrocytes. Neutrophils were counted via Coulter electronic particle counter and resuspended in HBSSB supplemented with 25% Endothelial Basal Medium (EBM), (Clonetics Corporation, San Diego, CA) at a concentration of 5 x 10^6 polymorphonuclear leukocytes (PMN)/ml.
(§2) The cytotoxic effects of stimulated neutrophils on endothelial cells were determined using a ^51Cr-release assay as previously described (Moldow, C.F., and Jacob, H.S. (1984) Methods Enzymol. 105, 378-385). Confluent monolayers of human aortic endothelial cells (HAE cells; Clonetics) grown in 96-well culture plates were prelabeled with 1 µCi/well ^51Cr (Na2 ^51Cr2O4, New England Nuclear, Boston, MA). The cells were incubated for 18 h at 37°C, then cytokine-activated with 10 Units/well human recombinant tumor necrosis factor-a (hrTNF-α; Monsanto Company, St. Louis, MO) for 4 h at 37°C. The cells were washed twice to remove unincorporated radioactivity with Hank's balanced salt solution supplemented with 0.5% BSA. To assess inhibition of PMN-mediated cytotoxicity, manganese(II) complexes at various doses (0-300 µM) were added to five replicate wells/dose of HAE cells immediately prior to the addition of PMN. Suspensions of PMN in HBSSB supplemented with 25% Endothelial Basal Medium were added to the wells at a neutrophil to endothelial cell ratio of 50:1. The PMN were allowed to adhere for 15 minutes at 37°C, primed with 125 Units/well hrTNF-α (Berkow, R.L., Wang, D., Larrick, J.W., Dodson, R.W., and Howard, T.H. (1987) J. Immunol. 139, 3783-3791; Varani, J.; Bendelow, M. J. Sealey, D. E.; Kunkel, S. L.; Gannon, D. E.; Ryan, U.S.; and Ward, P.A. (1987) Lab. Invest., 59, 292-295) for 10 minutes, and stimulated with human recombinant complement component C5a (Sigma Chemical, St. Louis, MO). […] After an additional incubation of 4 hours at 37°C, 200 µl of the 250 µl reaction volume (soluble fraction) was removed to a tube for counting. The cells were washed twice with 200 µl HBSSB (nonadherent fraction) and the washes pooled with the soluble fraction. The adherent fraction was collected by lysing the HAE cells with 200 µl 1N NaOH for 30 minutes and removing to separate tubes. Both fractions were analyzed by gamma scintillation spectrometry. The percentage cytotoxicity was calculated by the following formula: % Cytotoxicity =(cpm (soluble + nonadherent fractions))/(cpm (soluble + nonadherent + adherent fractions))x 100 [formula] Specific cytotoxicity reflects the difference between ^51Cr-release induced by stimulated PMN and unstimulated PMN. The IC50 values for the manganese(II) complexes for protection against neutrophil-mediated cytotoxicity were determined from a computer-driven logistic regression equation from a plot of % specific cytotoxicity versus the concentration of the manganese(II) complex.

[2] = system: colonic myeloperoxidase activity; assay: Mouse acetic acid-induced colitis model (colonic myeloperoxidase); assay type: in vivo; details: 30 mg/kg dose, intracolonic, 30 minutes before acetic acid, tissue after 24 hours
Procedure: Mouse colitis model. […] Mice were lightly anesthetized. A solution of 3% (v/v) aqueous acetic acid was instilled intracolonically via a flexible polyethylene tube. After 24 hours, the animals were killed and colonic tissue samples were obtained. Tissue samples were assessed biochemically for the neutrophil marker enzyme, myeloperoxidase (MPO). The colonic tissue samples were minced, homogenized in detergent, and sonicated. After centrifugation, enzyme activities were assayed spectrophotometrically by determining the decomposition of peroxide using o-dianisidine as the hydrogen donor. Data was obtained as the absorbance (460 nm) at 20 minutes. Test agents were given intracolonically at a dose of 30 mg/kg body weight 30 minutes before acetic acid instillation as a sonicated suspension in 0.5% aqueous methyl cellulose. Vehicle was given to appropriate acetic acid control animals. Normal tissue was obtained from control animals which received only vehicle. Colonic myeloperoxidase activities were determined as units/g wet weight of tissue. Reduction of colonic myeloperoxidase activity by test agents in acetic acid-treated mice is expressed as % inhibition (Table 2). Colonic myeloperoxidase activity correlated with the degree of tissue inflammation as assessed by visual and histological analysis.

[3] = system: human aortic endothelial cells (HAE cells); assay: Neutrophil-mediated cytotoxicity assay (51Cr-release); details: 50% inhibition of specific cytotoxicity; human neutrophil-mediated killing of human aortic endothelial cells
Text: as §1, §2

[4] = Stopped-flow kinetic analysis of catalytic dismutation of superoxide; assay type: biochemical; details: catalytic rate constant for dismutation of superoxide, pH 8.1 and 21°C
Text: Stopped-flow kinetic analysis is an accurate and direct method for quantitatively monitoring the decay rates of superoxide in water.
For the attainment of consistent and accurate measurements all reagents were biologically clean and metal-free. To achieve this, all buffers (Calbiochem) were biological grade, metal-free buffers and were handled with utensils which had been washed first with 0.1 N HCl, followed by purified water, followed by a rinse in a 10^-4 M EDTA bath at pH 8, followed by a rinse with purified water and dried at 65°C for several hours. Dry DMSO solutions of potassium superoxide (Aldrich) were prepared under a dry, inert atmosphere of argon in a Vacuum Atmospheres dry glovebox using dried glassware. The DMSO solutions were prepared immediately before every stopped-flow experiment. A mortar and pestle were used to grind the yellow solid potassium superoxide (~100 mg). The powder was then ground with a few drops of DMSO and the slurry transferred to a flask containing an additional 25 ml of DMSO. The resultant slurry was stirred for 1/2 h and then filtered. […] These solutions were transferred to a glovebag under nitrogen in sealed vials prior to loading the syringe under nitrogen. It should be noted that the DMSO/superoxide solutions are extremely sensitive to water, heat, air, and extraneous metals. A fresh, pure solution has a very slight yellowish tint.
Water for buffer solutions was delivered from an in-house deionized water system to a Barnstead Nanopure Ultrapure Series 550 water system and then double distilled, first from alkaline potassium permanganate and then from a dilute EDTA solution. For example, a solution containing 1.0 g of potassium permanganate, 2 liters of water and additional sodium hydroxide necessary to bring the pH to 9.0 were added to a […] fitted with a solvent distillation head. This distillation will oxidize any trace of organic compounds in the water. The final distillation was carried out under nitrogen in a 2.5-liter flask containing 1500 ml of water from the first still and 1.0 x 10^-6M EDTA. This step will remove remaining trace metals from the ultrapure water. To prevent EDTA mist from volatilizing over the reflux arm to the still head, the 40-cm vertical arm was packed with glass beads and wrapped with insulation. This system produces deoxygenated water that can be measured to have a conductivity of less than 2.0 nanomhos/cm^2.
The stopped-flow spectrometer system was designed and manufactured by Kinetic Instruments Inc. (Ann Arbor, MI) and was interfaced to a MAC IICX personal computer. The software for the stopped-flow analysis was provided by Kinetics Instrument Inc. and was written in QuickBasic with MacAdios drivers. Typical injector volumes (0.10 ml of buffer and 0.006 ml of DMSO) were calibrated so that a large excess of water over the DMSO solution were mixed together. […] Aqueous solutions to be mixed with the DMSO solution of superoxide were prepared using 80 mM concentrations of the Hepes buffer, pH 8.1 (free acid + Na form). One of the reservoir syringes was filled with 5 ml of the DMSO solution while the other was filled with 5 ml of the aqueous buffer solution. The entire injection block, mixer, and spectrometer cell were immersed in a thermostatted circulating water bath with a temperature of 21.0 ± 0.5°C.
Prior to initiating data collection for a superoxide decay, a baseline average was obtained by injecting several shots of the buffer and DMSO solutions into the mixing chamber. These shots were averaged and stored as the baseline.

Compound	protection against human neutrophil-mediated cytotoxicity, in words [1]	% Inhibition of Colonic Myeloperoxidase Activity [2]	IC50 [3]	kCAT [4]
[Manganese(II)diacetate(1,4,7,10,13-Pentaazacyclopentadecane)] [Example 8]	protective against human neutrophil-mediated cytotoxicity	32%		
CC(C)CC1CNCCNCCNCCNCCN1.[Cl-].[Cl-].[Mn+2] (centres unmarked) [Example 5, [Manganese(II)dichloro(2-(2-Methylpropyl)-1,4,7,10,13-pentaazacyclopentadecane)]]	protective against human neutrophil-mediated cytotoxicity	70%		
C1CCC(CC2CNCCNCCNCCNCCN2)CC1.[Cl-].[Cl-].[Mn+2] (centres unmarked) [Example 7, [Manganese(II)dichloro(2-Cyclohexylmethyl-1,4,7,10,13-pentaazacyclopentadecane)]]	protective against human neutrophil-mediated cytotoxicity	77%	22 µM	
C1CNCCNCCNCCNCCN1.F[P-](F)(F)(F)(F)F.[Cl][Mn+] [Example 27, [Manganese(II)chloro(1,4,7,10,13-Pentaazacyclopentadecane)]Hexafluorophosphate]	protective against human neutrophil-mediated cytotoxicity		26 µM	2.4e+07 M⁻¹ s⁻¹
[Manganese(II)dichloro((S)-2-Methyl-1,4,7,10,13-pentaazacyclopentadecane)] [Example 3]	protective against human neutrophil-mediated cytotoxicity	42%	37 µM	2.39e+07 M⁻¹ s⁻¹
CC1CNCCNCCNCCNCCN1.[Cl-].[Cl-].[Mn+2] (centres unmarked) [Example 2, [Manganese(II)dichloro(2-Methyl-1,4,7,10,13-pentaazacyclopentadecane)]]	protective against human neutrophil-mediated cytotoxicity	47%		2.67e+07 M⁻¹ s⁻¹
